The text below walks through data of patent US11230525B2, “Organic sulfur compound, method for preparing same, and pharmaceutical composition for preventing or treating cancer or an inflammatory disease, containing same as active ingredient” (SOOKMYUNG WOMENS UNIVERSITY INDUSTRY-ACADEMIC COOPERATION …, priority 2016, dated 2022).

Some results are limits rather than exact numbers.

The nature of data set [1]: Body weight of mice in prostate cancer xenograft model. The data set is classed as in vivo. The following applies: 50 mg/kg (SAHA 100 mg/kg) once a day for 16 days. As for the experimental part: (§1) When the tumor size reached 40-60 mm^3, the mice were randomly grouped (4 mice per group), which were the non-treated group (10% dimethylacetamide, 10% tween 80 and 80% distilled water), the groups treated with the compounds of comparative examples 1 and 2 (Ajoene, 50 mg/kg), the groups treated with the compounds of examples 18 and 32 (50 mg/kg), and the group treated with the positive control SAHA (Vorinostat, 100 mg/kg). The treatment was performed once a day for 16 days in total. During the treatment, the tumor size was measured with a vernier caliper, followed by evaluation according to the following formula: length (mm)×width (mm)×height (mm)/2. The weights were measured regularly.
(§2) Upon completion of the treatment (16 days later), the mice were sacrificed and the tumor weights were measured. All the experiments were performed according to the experiment protocol approved by Institutional Animal care and Use Committee (IACUC), Korea Research Institute of Bioscience and Biotechnology (KRIBB).

The target of a further data set is T1, HDAC 8 (Homo sapiens, UniProt Q9BY41).
T1 sequence (Q9BY41 1-377): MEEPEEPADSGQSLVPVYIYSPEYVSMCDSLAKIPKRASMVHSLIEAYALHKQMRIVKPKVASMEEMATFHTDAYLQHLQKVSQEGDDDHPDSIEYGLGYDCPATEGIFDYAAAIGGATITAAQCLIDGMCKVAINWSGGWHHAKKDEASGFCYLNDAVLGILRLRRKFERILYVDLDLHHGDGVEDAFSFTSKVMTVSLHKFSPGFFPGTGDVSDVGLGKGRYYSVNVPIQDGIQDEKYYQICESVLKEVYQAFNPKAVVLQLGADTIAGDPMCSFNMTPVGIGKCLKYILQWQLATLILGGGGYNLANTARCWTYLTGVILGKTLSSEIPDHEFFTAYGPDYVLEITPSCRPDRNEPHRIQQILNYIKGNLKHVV
Put plainly: HDAC enzyme fluorescence assay, HDAC 8. It counts as biochemical. Also noted: Inhibitory activity (%) HDAC 8: concentration or dose not given beside the values. The following applies: (HDAC inhibitory activity of example compound/HDAC inhibitory activity of SAHA) × 100. As for the experimental part:
(§3) Particularly, HDAC enzyme analysis was performed based on a uniform fluorescence emission assay. First, the compounds of examples of the present invention or comparative example 1 were diluted at different concentrations, which were treated to the analysis buffer containing 25 mM HEPES (pH 8.0), 137 mM NaCl, 1 mM MgCl2 and 2.7 mM KCL, followed by culture of the recombinant HDAC enzyme. 10 minutes later, Boc-Lys(acetyl)-AMC, the fluorescence inducing substrate, was added thereto, followed by further culture at 37° C. At this time, the concentration of the fluorescence inducing substrate and the culture time were adjusted according to the isotypes of the HDAC enzyme. The reaction was terminated by treating trypsin at room temperature for 20 minutes. The fluorescence intensity was measured using a fluorescence analyzer at an excitation wavelength of 380 nm and an emission wavelength of 460 nm, respectively. The inhibition rate was calculated from the measured fluorescence intensity of each well with comparing to that of the control well. IC50 of the compound was calculated by analyzing the dose-reaction inhibition curve.
The HDAC 8 inhibitory activity was presented as percentage of relative activity by the inhibitory activity of SAHA (Vorinostat) used as a reference compound.

The test system of data set [2] is PC-3 cells, human prostate cancer cells. Put plainly: Anticancer activity in prostate cancer xenograft model. It counts as in vivo, mice. The following applies: 50 mg/kg (SAHA 100 mg/kg) once a day for 16 days, compared with the non-treated group. As for the experimental part: Particularly, 9×10^6 PC-3 cells, human prostate cancer cells, were inoculated subcutaneously to the right side of female BALB/c nu/nu mice at 5 weeks of age (Nara Biotech, Seoul, Republic of Korea).
as §1, §2

In data set [3] the test system is prostate cancer cell line (PC-3). Put plainly: Cancer proliferation inhibitory activity (SRB, GI50), PC-3. It counts as cell-based. The following applies: Homo sapiens, 48 hours. An excerpt: (§4) Particularly, the cancer proliferation inhibitory activity of the compounds of comparative examples (Ajoene and the compounds isosteric to Ajoene wherein R1 is allyl or benzyl) and the compounds of examples of the present invention (the compounds not isosteric to Ajoene wherein R^1 is phenyl) was investigated in human cancer cell lines (renal cancer cell line (ACHN), breast cancer cell line (MDA-MB-231), colorectal cancer cell line (HCT-15), prostate cancer cell line (PC-3), gastric cancer cell line (NUGC-3) and lung cancer cell line (NCl-H23)).
(§5) At this time, the cancer cell lines (renal cancer cell line (ACHN), breast cancer cell line (MDA-MB-231), colorectal cancer cell line (HCT-15), prostate cancer cell line (PC-3), gastric cancer cell line (NUGC-3) and lung cancer cell line (NCl-H23)) above were purchased from American Type Culture Collection (Manassas, Va., USA). Cells were cultured in RPMI 1640 supplemented with 10% fetal bovine serum, which were maintained 37° C. under 5% CO2 wet atmosphere. The cells were distributed in a 96-well plate, which was not treated (treated only with 0.1% DMSO) or treated with the compounds of examples of the present (0.1 μM to 10 μM). 48 hours later, the cells were fixed in 50% trichloroacetic acid, followed by staining with 1% acetic acid containing 0.4% sulphorodamine B dissolved therein. The non-conjugated dye was removed by washing with 1% acetic acid, and the protein conjugated dye was extracted with 10 mM Tris base (pH 10.5). Then, OD540 was measured with VersaMax microplate reader (Molecular devices, Sunnyvale, Calif., USA). GI50 was calculated by using GraphPad Prism software (GraphPad Software, Inc., San Diego, Calif., USA).
(§6) Based on the results obtained in experimental example 1-1 above, the derivatives wherein R^1 is phenyl were additionally synthesized. The cancer proliferation inhibitory activity of the derivatives was evaluated by the same manner as described in experimental example 1-1.

Data set [4] concerns renal cancer cell line (ACHN). As to the kind of experiment: Cancer proliferation inhibitory activity (SRB, GI50), ACHN. The following applies: Homo sapiens, 48 hours. The data set is classed as cell-based.
From the text: as §4, §5, §6

For data set [5], the system named is breast cancer cell line (MDA-MB-231). Put plainly: Cancer proliferation inhibitory activity (SRB, GI50), MDA-MB-231. The data set is classed as cell-based. The following applies: Homo sapiens, 48 hours.
From the text: as §4, §5, §6

For data set [6], the system named is gastric cancer cell line (NUGC-3). Put plainly: Cancer proliferation inhibitory activity (SRB, GI50), NUGC-3. The data set is classed as cell-based. The following applies: Homo sapiens, 48 hours.
From the text: as §4, §5, §6

Data set [7] concerns colorectal cancer cell line (HCT-15). Put plainly: Cancer proliferation inhibitory activity (SRB, GI50), HCT-15. The conditions noted are these: Homo sapiens, 48 hours. It counts as cell-based.
From the text: as §4, §5, §6

For data set [8], the system named is lung cancer cell line (NCl-H23). As to the kind of experiment: Cancer proliferation inhibitory activity (SRB, GI50), NCI-H23. The following applies: Homo sapiens, 48 hours. The data set is classed as cell-based.
From the text: as §4, §5, §6

For a further data set, the target named is HDAC 1 (Homo sapiens, UniProt Q13547). Put plainly: HDAC enzyme fluorescence assay, HDAC 1. The data set is classed as biochemical. The conditions noted are these: recombinant HDAC enzyme, Boc-Lys(acetyl)-AMC. As for the experimental part:
as §3

HDAC 1, sequence (Q13547 whole entry, species assumed): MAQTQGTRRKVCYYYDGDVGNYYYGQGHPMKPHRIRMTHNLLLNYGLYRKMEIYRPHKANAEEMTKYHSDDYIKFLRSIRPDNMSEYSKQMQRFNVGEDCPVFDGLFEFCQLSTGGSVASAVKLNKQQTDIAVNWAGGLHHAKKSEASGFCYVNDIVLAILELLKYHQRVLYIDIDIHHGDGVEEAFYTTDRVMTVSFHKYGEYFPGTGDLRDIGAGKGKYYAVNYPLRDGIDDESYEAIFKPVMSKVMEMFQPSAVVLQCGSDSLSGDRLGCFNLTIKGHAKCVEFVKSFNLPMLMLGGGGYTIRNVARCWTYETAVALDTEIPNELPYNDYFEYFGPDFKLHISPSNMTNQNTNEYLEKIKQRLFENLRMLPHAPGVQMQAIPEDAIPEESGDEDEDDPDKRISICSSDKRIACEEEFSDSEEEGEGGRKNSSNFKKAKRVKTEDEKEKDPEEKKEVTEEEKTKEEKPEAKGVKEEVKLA

For the compound `C=CCSS/C=C/C[S+]([O-])CC=C` (stereo not drawn) [Comparative Example 1, E-Ajoene, reference compound], the “changes in weight of mice / visible toxicity (FIG. 1)” value in data set [1] is listed as “only normal weight increases were observed”. The “Inhibitory activity (%) HDAC 8” value on HDAC 8 came to 73.4%. Also, in data set [2], the “tumor size / cancer proliferation (FIGS. 2, 3)” value is “cancer proliferation was inhibited”.
On to `C=CCSS/C=C\C[S+]([O-])CC=C` (stereo not drawn) [Comparative Example 2, Z-Ajoene, reference compound], for which the GI50 in data set [3], in [4], in data set [5], in data set [6], in data set [7] and in data set [8] was greater than 10000 nM throughout. Also, in [1], the “changes in weight of mice / visible toxicity (FIG. 1)” value was “only normal weight increases were observed”. The “Inhibitory activity (%) HDAC 8” value on HDAC 8 is recorded as 52.5%. Further, the “tumor size / cancer proliferation (FIGS. 2, 3)” value in data set [2] was “cancer proliferation was inhibited”.
Consider `COc1cccc([S+]([O-])C/C=C\SSCc2ccc(Cl)cc2)c1` (stereo not drawn) [Example 24, (Z)-1-(4-chlorobenzyl)-2-(3-(3-methoxyphenylsulfinyl)prop-1-enyl)disulfane], for which the GI50 turned out to be 5970 nM in [3]; 5820 nM in data set [4]; 3570 nM in data set [5]; 5800 nM in data set [6]; 3650 nM in [7]; 5270 nM in data set [8]. On HDAC 8, the “Inhibitory activity (%) HDAC 8” value is 140.4%. For the same compound, at HDAC 1, the half-maximal inhibitory concentration (IC50) was 1270 nM.
Regarding `COc1ccc([S+]([O-])C/C=C/SSCc2ccc(F)cc2)cc1` (stereo not drawn) [Example 33, (E)-1-(4-fluorobenzyl)-2-(3-(4-methoxyphenylsulfinyl)prop-1-enyl)disulfane], the GI50 in [3] came to 290 nM; in [4] it was 170 nM; in data set [5], 160 nM; in [6], 240 nM; in [7], 250 nM; in data set [8] it was 270 nM. In addition, on HDAC 8, the “Inhibitory activity (%) HDAC 8” value is given as 111.7%.
Consider `COc1ccc([S+]([O-])C/C=C\SSCc2ccc(F)cc2)cc1` (stereo not drawn) [Example 34, (Z)-1-(4-fluorobenzyl)-2-(3-(4-methoxyphenylsulfinyl)prop-1-enyl)disulfane], for which the 50% growth inhibitory concentration (GI50) was 1350 nM in [3]; 1340 nM in [4]; 1090 nM in data set [5]; 2650 nM in data set [6]; 1450 nM in data set [7]; 1490 nM in data set [8]. Moreover, the “Inhibitory activity (%) HDAC 8” value on HDAC 8 came to 68.1%.
As for `COc1ccc([S+]([O-])C/C=C/SSCc2ccc(Cl)cc2)cc1` (stereo not drawn) [Example 35, (E)-1-(4-chlorobenzyl)-2-(3-(4-methoxyphenylsulfinyl)prop-1-enyl)disulfane], the GI50 turned out to be 1050 nM in [3]; 880 nM in [4]; 1160 nM in data set [5]; 1080 nM in [6]; 880 nM in data set [7]; 970 nM in data set [8]. For the same compound, the “Inhibitory activity (%) HDAC 8” value at HDAC 8 came out at 107.2%.
In the case of `COc1ccc([S+]([O-])C/C=C\SSCc2ccc(Cl)cc2)cc1` (stereo not drawn) [Example 36, (Z)-1-(4-chlorobenzyl)-2-(3-(4-methoxyphenylsulfinyl)prop-1-enyl)disulfane], the GI50 is 2280 nM in data set [3]; 2410 nM in [4]; 1780 nM in data set [5]; 2840 nM in data set [6]; 1620 nM in [7]; 2190 nM in data set [8]. For the same compound, the “Inhibitory activity (%) HDAC 8” value on HDAC 8 was found to be 98.7%.
For the compound `COc1ccc([S+]([O-])C/C=C/SSCc2ccc(Cl)c(Cl)c2)cc1` (stereo not drawn) [Example 37, (E)-1-(3,4-dichlorobenzyl)-2-(3-(4-methoxyphenylsulfinyl)prop-1-enyl)disulfane], the GI50 was found to be 5170 nM in [3]; 3750 nM in data set [4]; 4190 nM in [5]; 5480 nM in data set [6]; 3320 nM in data set [7]; 3090 nM in data set [8]. Moreover, at HDAC 8, the “Inhibitory activity (%) HDAC 8” value is reported as 106.1%.
In the case of `COc1ccc([S+]([O-])C/C=C\SSCc2ccc(Cl)c(Cl)c2)cc1` (stereo not drawn) [Example 38, (Z)-1-(3,4-dichlorobenzyl)-2-(3-(4-methoxyphenylsulfinyl)prop-1-enyl)disulfane], the GI50 was determined as 4360 nM in data set [3]; 5190 nM in data set [4]; 2070 nM in [5]; 4610 nM in data set [6]; 7180 nM in data set [7]; 3330 nM in [8]. Moreover, the “Inhibitory activity (%) HDAC 8” value at HDAC 8 was 55.5%.
With `O=C(CCCCCCC(=O)Nc1ccccc1)NO` [SAHA, reference compound], the “tumor size / cancer proliferation (FIGS. 2, 3)” value in data set [2] was “cancer proliferation was inhibited”.
